Experimental data taken from patent US11999749B2, “Synthesis of a bis-mesylate salt of 4-amino-N-(1-((3-chloro-2-fluorophenyl)amino)-6-methylisoquinolin-5-yl)thieno[3,2-d]pyrimidine-7-carboxamide and intermediates thereto” (Genentech, Inc., priority 2021, dated 2024).

How the values were obtained:
[1] = hygroscopicity of the salt forms; type: physicochemical; conditions: relative to the bis-HCl salt
[2] = solubility screen of 1b in organic solvents; type: physicochemical
From the text: This is notwithstanding the previously established solubility of 1b in NMP; that solvent should not be used due to its toxicity and the allowed limit of ˜500 ppm in the final pharmaceutical product. The limit for NMP is considerably lower than the 5,000 ppm permitted for DMSO. One of the reasons for relying on the recrystallization step is to remove an excess of NMP from the final product.
The selection of an appropriate anti-solvent is based at least in part on good miscibility with the other solvent(s) being used, low solubility of the solid form (to give desired form), and the ability to effectively remove impurities. To ensure the best control and purge of inorganic impurities in the crude product, water was selected as the anti-solvent. To this end, a more detailed solubility study of the crude material in DMSO/water mixtures at 10, 70, 75 and 80° C. indicated a steep dependence of the solubility of 1b on water content, with temperature having a smaller impact on recovery yield.

## Cc1ccc2c(Nc3cccc(Cl)c3F)nccc2c1NC(=O)c1csc2c(N)ncnc12 [Compound 1b, 4-amino-N-(1-((3-chloro-2-fluorophenyl)amino)-6-methylisoquinolin-5-yl)thieno[3,2-d]pyrimidine-7-carboxamide bis-mesylate]
[1]
  hygroscopicity: lower hygroscopicity
[2]; in DMSO
  solubility: sufficient solubility
[2]; in most organic solvents, initial solubility screen
  solubility: exceptionally low solubility
